Results reported in publication PMC12494831, “Discovery of new pyridine 3-carboxylic acid-based pharmacophores as dual anti-inflammatory and anti-hyperglycemic agents” (Scientific Reports, 2025).

Legend:
[1] = tested on: human RBC; experiment: Anti-inflammatory activity: hypotonic solution-induced human RBC hemolysis (560 nm); format: cell-based; settings: for IC50: induced human RBC hemolysis, read-out: Inflammatory IC50±SD
Method: All synthesized compounds are validated in human RBC (blood sample); the blood sample was collected from a healthy volunteer in an EDTA tube. The EDTA tube further proceeded with centrifugation at 3000 rpm for 30 min. A supernatant (which contains plasma and leucocytes) solution was isolated, and the obtained RBC (red blood cells) was further treated with Alsever’s reagent. Alsever’s reagent was prepared as follows: sodium citrate (0.8 g, 2.6 mmol), dextrose (2 g, 11.0 mmol), citric acid (0.050 g, […]), and sodium chloride (0.42 g, 7.0 mmol) were solubilized in 100 mL of distilled water. The above mixture was centrifuged for 30 min at 3000 rpm. Then, colloidal blood cells were separated, carefully transferred, and washed with 0.85% of the isosaline solution; this process continued until a clear solution appeared. Employing coagulated RBC and generated human erythrocyte hemolysis, the anti-inflammatory activity and potential of the synthesized entities were evaluated. The tested compounds are prepared at different concentrations for the inhibition activity of inflammation, along with 100 µL of a purified RBC sample utilized. All characterized samples were followed by adding 5.0 mL of trisodium phosphate (10 mM) and 5.0 mL of sodium chloride (5.0 mM) buffer solutions. After the addition of the above mixtures, the test samples are incubated for 15 min at room temperature with RBC and hypotonic mixtures. After incubation, the mixture was centrifuged at 3000 rpm for 15 min. The final supernatant liquid solution was measured at 560 nm using a UV-visible spectrophotometer.3 [drawing 3]

[2] = DPPH radical scavenging (517 nm); settings: for IC50: read-out: DPPH IC50±SD
Method: (§1) The experimental method principle relies on the degradation of the purple color of the DPPH radical and the blue color reduction of the ABTS cation radical. This is due to consuming the electron or hydrogen radical from the antioxidant (A-H). Both assays were measured at 517 nm and 734 nm, respectively. The distinction of color changes illustrates the potential scavenging activity of the inhibitor molecules in terms of hydrogen-donating proficiency. From this, we can conclude the anti-oxidant efficacy.
Methanolic DPPH solution (0.15 mM) was prepared, and 1.0 mL of DPPH solution was mixed with 3.0 mL of synthesized molecules at different concentrations (20 µM to 100 µM). The mixture was constantly swirled and stored RT for 30 min, followed by absorbance measurement at 517 nm.

[3] = molecular target: T1, α-amylase (EC.3.2.1.1) (Homo sapiens, UniProt P04746); experiment: In vitro α-amylase inhibition (starch/DNS, 540 nm); format: biochemical; settings: for IC50: test concentrations 2-10 µg, read-out: α-Amylase IC50±SD (converted)
T1 sequence (P04746 16-511): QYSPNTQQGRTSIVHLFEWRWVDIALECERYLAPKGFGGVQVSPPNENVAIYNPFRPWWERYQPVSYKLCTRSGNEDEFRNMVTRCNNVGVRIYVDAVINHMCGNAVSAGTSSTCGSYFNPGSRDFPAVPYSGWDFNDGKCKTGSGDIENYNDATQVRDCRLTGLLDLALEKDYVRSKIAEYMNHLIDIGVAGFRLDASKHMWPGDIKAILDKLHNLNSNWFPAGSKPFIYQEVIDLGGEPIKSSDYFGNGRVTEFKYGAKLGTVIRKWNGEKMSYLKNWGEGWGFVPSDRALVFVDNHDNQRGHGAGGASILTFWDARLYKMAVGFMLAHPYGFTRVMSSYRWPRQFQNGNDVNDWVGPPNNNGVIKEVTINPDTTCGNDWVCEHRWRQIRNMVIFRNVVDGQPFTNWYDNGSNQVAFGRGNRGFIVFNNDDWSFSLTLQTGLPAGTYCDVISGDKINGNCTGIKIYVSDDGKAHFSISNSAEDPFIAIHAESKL
Method: α-Amylase enzyme and other chemical reagents are used for enzyme inhibitory activity. The characterized compounds are diluted in an analytical grad solvent (DMSO) system at 1 mg/mL solution concentration. The activity reaction of the synthesized analogues on the enzyme was treated at final concentrations of 2 to 10 µg. In the interaction between enzyme and compounds, 10 min incubation was maintained before the inhibitory activity started. The enzyme-receptor inhibition efficiency was calculated and compared with the positive control.
Sodium phosphate buffer 0.2 mM (pH 6.9 with 6 × 10^− 4 M NaCl) in 500 µL enzyme solution (0.5 mg/mL) was taken and incubated with test samples (2–10 µg/mL) at room temperature for 10 min. A starch (1%) solution of 500 µL with phosphate buffer was added to all test inhibitor samples; further, the tubes were incubated for 10 min at 28 °C. The reaction test tubes were incubated for another 5 min in the water bath (100 °C) after the addition of the color reagent dinitro salicylic acid and cooled at room temperature until reached. Finally, 10 mL of distilled water was mixed with each test tube, and the colored mixture was measured at a fixed wavelength of 540 nm. The absorbance without sample solution (blank) and control (buffer and standard drug sample) was measured at 540 nm. The α-amylase inhibition efficiency was validated using the following equation:2 [drawing 2]

[4] = ABTS cation radical scavenging (734 nm); settings: for IC50: read-out: ABTS IC50±SD
Method: as §1
In brief, 7.0 mM ABTS in H2O and 2.5 mM potassium persulfate (1:1) were shaken well to generate ABTS cation radicals and kept in the dark at RT for 15–20 h before it is used for the experiment. After, the radical was mixed with the synthesized molecules at different concentrations (20 µM to 100 µM). The resultant solution was measured for absorbance at 734 nm. Ascorbic acid is the positive control for this experiment.1 [drawing 1]

Compound | inhibition at 20 µM [1] [%] | inhibition at 40 µM [1] [%] | inhibition at 60 µM [1] [%] | inhibition at 80 µM [1] [%] | inhibition at 100 µM [1] [%] | IC50 [1] [µM] | DPPH Inhibition % ([2]; 20 µM) [%] | DPPH Inhibition % ([2]; 40 µM) [%] | DPPH Inhibition % ([2]; 60 µM) [%] | DPPH Inhibition % ([2]; 80 µM) [%] | DPPH Inhibition % ([2]; 100 µM) [%] | IC50 [2] [µM] | α-Amylase Inhibition % ([3]; 2 µg) [%] | α-Amylase Inhibition % ([3]; 4 µg) [%] | ABTS Inhibition % ([4]; 20 µM) [%] | ABTS Inhibition % ([4]; 40 µM) [%] | ABTS Inhibition % ([4]; 60 µM) [%] | ABTS Inhibition % ([4]; 80 µM) [%] | ABTS Inhibition % ([4]; 100 µM) [%] | IC50 [4] [µM] | other results
COc1cc(C(C)=O)ccc1OC(=O)c1cccnc1 [Compound 2i, 4-Acetyl-2-methoxyphenyl nicotinate] | 17.6 | 25.3 | 47 | 58 | 70 | 66.97 ± 0.28 | 8.89 | 33.34 | 40.65 | 49.83 | 52.22 | 99.62 ± 0.15 | 77.74 | 76.42 | 41.6 | 44.7 | 49.5 | 53.9 | 60.4 | 38.43 ± 0.21 | α-Amylase Inhibition % ([3]; 6 µg): 74.67%; α-Amylase Inhibition % ([3]; 8 µg): 71.01%; α-Amylase Inhibition % ([3]; 10 µg): 70.86%; IC50 [3]: 5.25 µM
O=C(Nc1ccc2c(c1)OCO2)c1cccnc1 [Compound 2j, N-(Benzo[1,3]dioxol-5-yl)nicotinamide] | 59 | 68 | 75 | 92.7 | 93 | 20.3 ± 0.22 | 34.8 | 37.7 | 43.7 | 46 | 50.1 | 97.62 ± 0.24 | 85.94 | 75.4 | 28.3 | 39 | 42.4 | 45 | 47.9 | 57.25 ± 0.11 | α-Amylase Inhibition % ([3]; 6 µg): 74.67%; α-Amylase Inhibition % ([3]; 8 µg): 68.96%; α-Amylase Inhibition % ([3]; 10 µg): 57.1%; IC50 [3]: 5.47 µM
O=C1O[C@H]([C@@H](O)CO)C(O)=C1O [Ascorbic acid, reference compound] |  |  |  |  |  |  | 91 | 91.8 | 93.7 | 94.3 | 96.1 | 11.81 ± 0.04 |  |  | 90 | 93 | 95 | 96 | 96.5 | 11.9 ± 0.01 | 
COC(=O)C=Cc1cc(OC)c(OC(=O)c2cccnc2)c(OC)c1 [Compound 2d, 2,6-dimethoxy-4-(3-methoxy-3-oxoprop-1-en-1-yl)phenyl nicotinate] | 59 | 62 | 65.4 | 75.2 | 84.4 | 20.2 ± 0.26 | 36.2 | 56.3 | 80.5 | 87.4 | 88.3 | 32.02 ± 0.26 |  |  | 56.9 | 59.6 | 62.5 | 62.6 | 63.2 | 21.57 ± 0.11 | 
COC(=O)C=Cc1cccc(OC(=O)c2cccnc2)c1 [Compound 2f, 3-(3-Methoxy-3-oxoprop-1-en-1-yl)-phenyl nicotinate] | 31 | 37 | 42 | 45.6 | 49 | 65.24 ± 0.18 | 35.31 | 38.4 | 41.11 | 43.18 | 45.7 | 78.05 ± 0.08 | 79.2 | 77.89 | 27.6 | 33.8 | 41.5 | 52 | 60.1 | 81.05 ± 0.22 | α-Amylase Inhibition % ([3]; 6 µg): 56.22%; α-Amylase Inhibition % ([3]; 8 µg): 47.87%; α-Amylase Inhibition % ([3]; 10 µg): 36.74%; IC50 [3]: 4.71 µM
O=C(c1ccccc1)c1ccc2n1CCC2C(=O)O (centres unmarked) [Ketorolac, reference compound] | 91 | 92 | 93 | 93.5 | 94 | 11.8 ± 0.17 |  |  |  |  |  |  |  |  |  |  |  |  |  |  | 
C[C@H]1O[C@H](O[C@H]2[C@H](O)[C@@H](O)[C@@H](O[C@H]3[C@H](O)[C@@H](O)C(O)O[C@@H]3CO)O[C@@H]2CO)[C@H](O)[C@@H](O)[C@@H]1N[C@H]1C=C(CO)[C@@H](O)[C@H](O)[C@H]1O (some centres unmarked) [Acarbose, reference compound] |  |  |  |  |  |  |  |  |  |  |  |  | 85.59 | 83.98 |  |  |  |  |  |  | α-Amylase Inhibition % ([3]; 6 µg): 82.19%; α-Amylase Inhibition % ([3]; 8 µg): 80.97%; α-Amylase Inhibition % ([3]; 10 µg): 80.38%
